The test system of test [1] is Candida albicans. Description: Antifungal activity against Candida albicans SC5314 assessed as inhibition of fungal growth incubated for 48 to 72 hrs by microplate reader analysis. The test is classed as functional, organism-based. Conditions: time 48-72 hrs.
Test [2] has as its system Candida albicans. Description: Antifungal activity against Candida albicans 103 assessed as inhibition of fungal growth incubated for 48 to 72 hrs by microplate reader analysis. The test is classed as functional, organism-based. Conditions: time 48-72 hrs.
Test [3] relates to Candida albicans. The test is described as follows: Antifungal activity against Candida albicans 9296 assessed as inhibition of fungal growth incubated for 48 to 72 hrs by microplate reader analysis. The class given is functional, organism-based. Conditions: time 48-72 hrs.
In test [4] the test system is [Candida] auris. Description: Antifungal activity against Candida auris 15448 assessed as inhibition of fungal growth incubated for 48 to 72 hrs by microplate reader analysis. The class given is functional, organism-based. The following applies: Candidozyma auris, time 48-72 hrs.
The subject of test [5] is [Candida] auris. The test is described as follows: Antifungal activity against Candida auris 0029 assessed as inhibition of fungal growth incubated for 48 to 72 hrs by microplate reader analysis. Conditions: Candidozyma auris, time 48-72 hrs. The test is classed as functional, organism-based.
For test [6], the system named is [Candida] auris. Description: Antifungal activity against Candida auris 0030 assessed as inhibition of fungal growth incubated for 48 to 72 hrs by microplate reader analysis. The class given is functional, organism-based. Conditions: Candidozyma auris, time 48-72 hrs.
Test [7] concerns Cryptococcus neoformans. The test is described as follows: Antifungal activity against Cryptococcus neoformans H99 assessed as inhibition of fungal growth incubated for 48 to 72 hrs by microplate reader analysis. The following applies: time 48-72 hrs. The test is classed as functional.
Test [8] concerns Cryptococcus neoformans. The test is described as follows: Antifungal activity against Cryptococcus neoformans 011409 assessed as inhibition of fungal growth incubated for 48 to 72 hrs by microplate reader analysis. The test is classed as functional. The following applies: time 48-72 hrs.
Test [9] relates to Cryptococcus neoformans. Description: Antifungal activity against Cryptococcus neoformans HN-68 assessed as inhibition of fungal growth incubated for 48 to 72 hrs by microplate reader analysis. The test is classed as functional. The following applies: time 48-72 hrs.
A further test has as its system Cryptococcus gattii. The test is described as follows: Antifungal activity against Cryptococcus gattii 01063P assessed as inhibition of fungal growth incubated for 48 to 72 hrs by microplate reader analysis. The test is classed as functional. The following applies: time 48-72 hrs.
In test [10] the test system is Nakaseomyces glabratus. Description: Antifungal activity against Candida glabrata 8535 assessed as inhibition of fungal growth incubated for 48 to 72 hrs by microplate reader analysis. The class given is functional. The following applies: time 48-72 hrs.
Test [11] relates to Nakaseomyces glabratus. The test is described as follows: Antifungal activity against Candida glabrata 9256 assessed as inhibition of fungal growth incubated for 48 to 72 hrs by microplate reader analysis. The test is classed as functional. The following applies: time 48-72 hrs.
The test system of test [12] is Nakaseomyces glabratus. The test is described as follows: Antifungal activity against Candida glabrata 0161 assessed as inhibition of fungal growth incubated for 48 to 72 hrs by microplate reader analysis. The class given is functional. The following applies: time 48-72 hrs.

Activity calls are given as the source filed them. The rule behind the calls is not given here.

Turning to `CC(=O)c1ccc(NC(=O)n2[nH]c(N)cc2=O)cc1`, the result (in the test on Candida albicans [1]; with Candida albicans [2]; in the test on Candida albicans [3]; in [Candida] auris [4]; in [Candida] auris [5]; in test [Candida] auris [6]) was inactive. For the same molecule, the result in the test on Cryptococcus neoformans [7], with Cryptococcus neoformans [8], in the test on Cryptococcus neoformans [9], in the test on Cryptococcus gattii, with Nakaseomyces glabratus [10] and in the test on Nakaseomyces glabratus [11] was inactive. The result in the test on Nakaseomyces glabratus [12] was inactive.

As for `Nc1cc(=O)n(C(=S)Nc2ccc(OC3CCCC3)cc2)[nH]1`, the outcome (with Candida albicans [1]; in the test on Candida albicans [2]; with Candida albicans [3]; in test [Candida] auris [4]; in [Candida] auris [5]; in [Candida] auris [6]) was Active. Also, the outcome in the test with Cryptococcus neoformans [7], in the test with Cryptococcus neoformans [8], with Cryptococcus neoformans [9], with Cryptococcus gattii, in the test with Nakaseomyces glabratus [10] and in the test on Nakaseomyces glabratus [11] was Active. The result in the test with Nakaseomyces glabratus [12] was Active.

On to `CCCCc1ccc(NC(=S)n2[nH]c(N)cc2=O)cc1`, for which the outcome (in the test with Candida albicans [1]; in the test with Candida albicans [2]; in the test on Candida albicans [3]; in test [Candida] auris [4]; in [Candida] auris [5]; in [Candida] auris [6]) was Active. Besides, the result in the test with Cryptococcus neoformans [7], with Cryptococcus neoformans [8], in the test with Cryptococcus neoformans [9], in the test on Cryptococcus gattii, in the test on Nakaseomyces glabratus [10] and with Nakaseomyces glabratus [11] was Active. Moreover, in the test with Nakaseomyces glabratus [12], the result was Active.

Turning to `Nc1cc(=O)n(C(=S)Nc2ccc(C(=O)c3ccccc3)cc2)[nH]1`, the result (with Candida albicans [1]; in the test on Candida albicans [2]; in the test on Candida albicans [3]; in test [Candida] auris [4]; in test [Candida] auris [5]; in test [Candida] auris [6]) was inactive. In addition, the result in the test with Cryptococcus neoformans [7], with Cryptococcus neoformans [8], in the test on Cryptococcus neoformans [9], in the test with Cryptococcus gattii, in the test with Nakaseomyces glabratus [10] and in the test on Nakaseomyces glabratus [11] was Active. For the same molecule, the result with Nakaseomyces glabratus [12] was Active.

For `Nc1ccn(C(=S)Nc2ccc(C3CCCCC3)cc2)n1`, the result (in the test on Candida albicans [1]; with Candida albicans [2]; in the test on Candida albicans [3]; in test [Candida] auris [4]; in test [Candida] auris [5]; in test [Candida] auris [6]) was inactive. Moreover, the result in the test with Cryptococcus neoformans [7], with Cryptococcus neoformans [8], in the test on Cryptococcus neoformans [9], in the test on Cryptococcus gattii, in the test with Nakaseomyces glabratus [10] and with Nakaseomyces glabratus [11] was inactive. The result with Nakaseomyces glabratus [12] was inactive.

For `CCc1ccc(NC(=S)n2[nH]c(N)cc2=O)cc1`, the result (in the test on Candida albicans [1]; with Candida albicans [2]; in the test with Candida albicans [3]; in test [Candida] auris [4]; in [Candida] auris [5]; in test [Candida] auris [6]) was Active. In addition, the result in the test on Cryptococcus neoformans [7], in the test with Cryptococcus neoformans [8], in the test on Cryptococcus neoformans [9], in the test with Cryptococcus gattii, with Nakaseomyces glabratus [10] and in the test with Nakaseomyces glabratus [11] was Active. For the same molecule, the result with Nakaseomyces glabratus [12] was Active.

As to `CCCCCCc1ccc(NC(=S)n2[nH]c(N)cc2=O)cc1`, the result (with Candida albicans [1]; in the test on Candida albicans [2]; with Candida albicans [3]; in test [Candida] auris [4]; in test [Candida] auris [5]; in test [Candida] auris [6]) was Active. The result in the test on Cryptococcus neoformans [7], in the test with Cryptococcus neoformans [8], in the test on Cryptococcus neoformans [9], in the test with Cryptococcus gattii, in the test with Nakaseomyces glabratus [10] and in the test with Nakaseomyces glabratus [11] was Active. The outcome in the test with Nakaseomyces glabratus [12] was Active.

Take `CS(=O)(=O)c1ccc(NC(=S)n2[nH]c(N)cc2=O)cc1`: the Activity entry (in the test with Candida albicans [1]; in the test on Candida albicans [2]; in the test on Candida albicans [3]; in test [Candida] auris [4]; in test [Candida] auris [5]; in test [Candida] auris [6]) was “Not active; Compound Demonstrated Reduced Activity Compared To Lead Compound 1” throughout. In addition, the Activity result with Cryptococcus neoformans [7], in the test with Cryptococcus neoformans [8], with Cryptococcus neoformans [9] and with Cryptococcus gattii was “Not active; Compound Demonstrated Reduced Activity Compared To Lead Compound 1” in each case. Besides, the outcome in the test on Nakaseomyces glabratus [10], in the test on Nakaseomyces glabratus [11] and in the test with Nakaseomyces glabratus [12] was Active.

In the case of `CCc1ccc(NC(=O)n2[nH]c(N)cc2=O)cc1`, the result (in the test on Candida albicans [1]; with Candida albicans [2]; with Candida albicans [3]; in test [Candida] auris [4]; in test [Candida] auris [5]; in test [Candida] auris [6]) was inactive. For the same molecule, the result in the test on Cryptococcus neoformans [7], with Cryptococcus neoformans [8], in the test on Cryptococcus neoformans [9], in the test with Cryptococcus gattii, in the test with Nakaseomyces glabratus [10] and in the test on Nakaseomyces glabratus [11] was inactive. For the same molecule, the result in the test with Nakaseomyces glabratus [12] was inactive.

These data come from ChEMBL document CHEMBL6109146, “Discovery of New Pyrazolone Carbothioamide Derivatives as Potent Antifungal Agents for the Treatment of Candidiasis and Cryptococcosis” (J Med Chem, 2025).
